# According to patent US10167262B2, “Herbicidal substituted 3-arylpyrazoles” (FMC CORPORATION, priority 2014, dated 2019):
# What was measured:
# Assay in all cases: Test E pre-/postemergence greenhouse test, plant response rating 0-100
# Type in all cases: in vivo
# [1] = tested on: wild poinsettia (Euphorbia heterophylla); settings: scale 0 to 100; for Plant response rating, Poinsettia, Wild: Postemergence; for Poinsettia, Wild plant response rating: Preemergence
# In short: (§1)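 Seeds sown in silt loam soil received preemergence treatment with compound in a non-phytotoxic solvent mixture containing surfactant. Postemergence, plants at 2–18 cm (1- to 4-leaf stage) in peat/vermiculite medium were sprayed with the same formulation. Visual injury versus untreated controls was rated 0–100 after 14 to 21 days in the greenhouse.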
# [2] = tested on: hairy beggarticks (Bidens pilosa); settings: scale 0 to 100; for Plant response rating, Beggarticks: Postemergence; for Beggarticks plant response rating: Preemergence
# In short: as §1
# [3] = tested on: barnyardgrass (Echinochloa crus-galli); settings: scale 0 to 100; for Plant response rating, Barnyardgrass: Postemergence; for Barnyardgrass plant response rating: Preemergence
# In short: as §1
# soybean (Glycine max) = settings: scale 0 to 100; for Plant response rating, Soybean: Postemergence; for Soybean plant response rating: Preemergence
# In short: as §1
# [4] = tested on: Italian ryegrass (Lolium multiflorum); settings: scale 0 to 100; for Plant response rating, Ryegrass, Italian: Postemergence; for Ryegrass, Italian plant response rating: Preemergence
# In short: as §1
# [5] = tested on: sandbur (southern sandbur, Cenchrus echinatus); settings: scale 0 to 100; for Plant response rating, Sandbur: Postemergence; for Sandbur plant response rating: Preemergence
# In short: as §1
# [6] = tested on: Brazilian crabgrass (Digitaria horizontalis); settings: Postemergence, scale 0 to 100
# In short: as §1
# [7] = tested on: dayflower (Virginia (VA) dayflower, Commelina virginica); settings: scale 0 to 100; for Plant response rating, Dayflower, VA: Postemergence
# In short: as §1
# [8] = tested on: arrowleaf sida (Sida rhombifolia); settings: for Plant response rating, Arrowleaf Sida: Postemergence; for Arrowleaf Sida plant response rating: Preemergence
# In short: as §1
# corn (Zea mays) = settings: scale 0 to 100; for Plant response rating, Corn: Postemergence; for Corn plant response rating: Preemergence
# In short: as §1
# [9] = tested on: waterhemp (common waterhemp, Amaranthus rudis); settings: scale 0 to 100; for Plant response rating, Waterhemp: Postemergence; for Waterhemp plant response rating: Preemergence
# In short: as §1
# [10] = tested on: palmer pigweed (Amaranthus palmeri); settings: scale 0 to 100; for Plant response rating, Pigweed, Palmer: Postemergence; for Pigweed, Palmer plant response rating: Preemergence
# In short: as §1
compound,measurement,setting,value
O=C(c1ccccc1)c1cn(S(=O)(=O)C(F)(F)F)nc1-c1cc(Cl)cc(Cl)c1 [Compound 2],"Plant response rating, Poinsettia, Wild",[1]; 31 g ai/ha,0
same,"Plant response rating, Poinsettia, Wild",[1]; 62 g ai/ha,0
same,"Plant response rating, Poinsettia, Wild",[1]; 125 g ai/ha,0
same,"Plant response rating, Poinsettia, Wild",[1]; 250 g ai/ha,0
same,"Plant response rating, Poinsettia, Wild",[1]; 500 g ai/ha,0
same,"Poinsettia, Wild plant response rating",[1]; 62 g ai/ha,0
same,"Poinsettia, Wild plant response rating",[1]; 125 g ai/ha,0
same,"Poinsettia, Wild plant response rating",[1]; 250 g ai/ha,0
same,"Poinsettia, Wild plant response rating",[1]; 500 g ai/ha,0
same,"Plant response rating, Beggarticks",[2]; 31 g ai/ha,80
same,"Plant response rating, Beggarticks",[2]; 62 g ai/ha,90
same,"Plant response rating, Beggarticks",[2]; 125 g ai/ha,100
same,"Plant response rating, Beggarticks",[2]; 250 g ai/ha,100
same,"Plant response rating, Beggarticks",[2]; 500 g ai/ha,100
same,Beggarticks plant response rating,[2]; 31 g ai/ha,0
same,Beggarticks plant response rating,[2]; 62 g ai/ha,0
same,Beggarticks plant response rating,[2]; 125 g ai/ha,0
same,Beggarticks plant response rating,[2]; 250 g ai/ha,0
same,Beggarticks plant response rating,[2]; 500 g ai/ha,0
same,"Plant response rating, Barnyardgrass",[3]; 31 g ai/ha,0
same,"Plant response rating, Barnyardgrass",[3]; 62 g ai/ha,0
same,"Plant response rating, Barnyardgrass",[3]; 125 g ai/ha,0
same,"Plant response rating, Barnyardgrass",[3]; 250 g ai/ha,0
same,"Plant response rating, Barnyardgrass",[3]; 500 g ai/ha,0
same,Barnyardgrass plant response rating,[3]; 31 g ai/ha,0
same,Barnyardgrass plant response rating,[3]; 62 g ai/ha,0
same,Barnyardgrass plant response rating,[3]; 125 g ai/ha,0
same,Barnyardgrass plant response rating,[3]; 250 g ai/ha,0
same,Barnyardgrass plant response rating,[3]; 500 g ai/ha,0
same,"Plant response rating, Soybean",soybean (Glycine max); 31 g ai/ha,0
same,"Plant response rating, Soybean",soybean (Glycine max); 62 g ai/ha,0
same,"Plant response rating, Soybean",soybean (Glycine max); 125 g ai/ha,0
same,"Plant response rating, Soybean",soybean (Glycine max); 250 g ai/ha,0
same,"Plant response rating, Soybean",soybean (Glycine max); 500 g ai/ha,0
same,Soybean plant response rating,soybean (Glycine max); 125 g ai/ha,0
same,Soybean plant response rating,soybean (Glycine max); 250 g ai/ha,0
same,Soybean plant response rating,soybean (Glycine max); 500 g ai/ha,0
same,"Plant response rating, Ryegrass, Italian",[4]; 31 g ai/ha,0
same,"Plant response rating, Ryegrass, Italian",[4]; 62 g ai/ha,0
same,"Plant response rating, Ryegrass, Italian",[4]; 125 g ai/ha,0
same,"Plant response rating, Ryegrass, Italian",[4]; 250 g ai/ha,0
same,"Plant response rating, Ryegrass, Italian",[4]; 500 g ai/ha,0
same,"Ryegrass, Italian plant response rating",[4]; 31 g ai/ha,0
same,"Ryegrass, Italian plant response rating",[4]; 62 g ai/ha,0
same,"Ryegrass, Italian plant response rating",[4]; 125 g ai/ha,0
same,"Ryegrass, Italian plant response rating",[4]; 250 g ai/ha,0
same,"Ryegrass, Italian plant response rating",[4]; 500 g ai/ha,0
same,"Plant response rating, Sandbur",[5]; 31 g ai/ha,0
same,"Plant response rating, Sandbur",[5]; 62 g ai/ha,0
same,"Plant response rating, Sandbur",[5]; 125 g ai/ha,0
same,"Plant response rating, Sandbur",[5]; 250 g ai/ha,0
same,"Plant response rating, Sandbur",[5]; 500 g ai/ha,0
same,Sandbur plant response rating,[5]; 31 g ai/ha,0
same,Sandbur plant response rating,[5]; 62 g ai/ha,0
same,Sandbur plant response rating,[5]; 125 g ai/ha,0
same,Sandbur plant response rating,[5]; 250 g ai/ha,0
same,Sandbur plant response rating,[5]; 500 g ai/ha,0
same,"Plant response rating, Crabgrass, Brazil",[6]; 31 g ai/ha,0
same,"Plant response rating, Crabgrass, Brazil",[6]; 62 g ai/ha,0
same,"Plant response rating, Crabgrass, Brazil",[6]; 125 g ai/ha,0
same,"Plant response rating, Crabgrass, Brazil",[6]; 250 g ai/ha,0
same,"Plant response rating, Crabgrass, Brazil",[6]; 500 g ai/ha,0
same,"Plant response rating, Dayflower, VA",[7]; 31 g ai/ha,0
same,"Plant response rating, Dayflower, VA",[7]; 62 g ai/ha,0
same,"Plant response rating, Dayflower, VA",[7]; 125 g ai/ha,0
same,"Plant response rating, Dayflower, VA",[7]; 250 g ai/ha,0
same,"Plant response rating, Dayflower, VA",[7]; 500 g ai/ha,0
same,"Dayflower, VA plant response rating","[7]; Preemergence, 62 g ai/ha",0
same,"Plant response rating, Arrowleaf Sida","[8]; 31 g ai/ha, scale 0 to 100",95
same,"Plant response rating, Arrowleaf Sida","[8]; 62 g ai/ha, scale 0 to 100",95
same,"Plant response rating, Arrowleaf Sida","[8]; 125 g ai/ha, scale 0 to 100",95
same,"Plant response rating, Arrowleaf Sida","[8]; 250 g ai/ha, scale 0 to 100",95
same,"Plant response rating, Arrowleaf Sida","[8]; 500 g ai/ha, scale 0 to 100 (0 no effect, 100 complete control)",98
same,Arrowleaf Sida plant response rating,"[8]; 31 g ai/ha, scale 0 to 100",35
same,Arrowleaf Sida plant response rating,"[8]; 62 g ai/ha, scale 0 to 100",35
same,Arrowleaf Sida plant response rating,"[8]; 125 g ai/ha, scale 0 to 100",50
same,Arrowleaf Sida plant response rating,"[8]; 250 g ai/ha, scale 0 to 100",98
same,Arrowleaf Sida plant response rating,"[8]; 500 g ai/ha, scale 0 to 100",95
same,"Plant response rating, Corn",corn (Zea mays); 31 g ai/ha,0
same,"Plant response rating, Corn",corn (Zea mays); 62 g ai/ha,0
same,"Plant response rating, Corn",corn (Zea mays); 125 g ai/ha,0
same,"Plant response rating, Corn",corn (Zea mays); 250 g ai/ha,0
same,"Plant response rating, Corn",corn (Zea mays); 500 g ai/ha,0
same,Corn plant response rating,corn (Zea mays); 31 g ai/ha,0
same,Corn plant response rating,corn (Zea mays); 62 g ai/ha,0
same,Corn plant response rating,corn (Zea mays); 125 g ai/ha,0
same,Corn plant response rating,corn (Zea mays); 250 g ai/ha,0
same,Corn plant response rating,corn (Zea mays); 500 g ai/ha,0
same,"Plant response rating, Waterhemp",[9]; 31 g ai/ha,90
same,"Plant response rating, Waterhemp",[9]; 62 g ai/ha,80
same,"Plant response rating, Waterhemp",[9]; 125 g ai/ha,98
same,"Plant response rating, Waterhemp",[9]; 250 g ai/ha,98
same,"Plant response rating, Waterhemp",[9]; 500 g ai/ha,100
same,Waterhemp plant response rating,[9]; 31 g ai/ha,0
same,Waterhemp plant response rating,[9]; 125 g ai/ha,30
same,Waterhemp plant response rating,[9]; 250 g ai/ha,65
same,Waterhemp plant response rating,[9]; 500 g ai/ha,100
same,"Plant response rating, Pigweed, Palmer",[10]; 31 g ai/ha,65
same,"Plant response rating, Pigweed, Palmer",[10]; 62 g ai/ha,85
same,"Plant response rating, Pigweed, Palmer",[10]; 125 g ai/ha,90
same,"Plant response rating, Pigweed, Palmer",[10]; 250 g ai/ha,95
same,"Plant response rating, Pigweed, Palmer",[10]; 500 g ai/ha,100
same,"Pigweed, Palmer plant response rating",[10]; 31 g ai/ha,0
same,"Pigweed, Palmer plant response rating",[10]; 62 g ai/ha,0
same,"Pigweed, Palmer plant response rating",[10]; 125 g ai/ha,0
same,"Pigweed, Palmer plant response rating",[10]; 250 g ai/ha,0
same,"Pigweed, Palmer plant response rating",[10]; 500 g ai/ha,100
